molecular target: Human Cot (Homo sapiens (Human), UniProt P41279); assay: High Throughput Cot Biochemical Assay; details: IC50 HTRF, Cot HTRF (TR-FRET KinEASE) biochemical assay, 400 μM ATP
Sequence (P41279 30-397): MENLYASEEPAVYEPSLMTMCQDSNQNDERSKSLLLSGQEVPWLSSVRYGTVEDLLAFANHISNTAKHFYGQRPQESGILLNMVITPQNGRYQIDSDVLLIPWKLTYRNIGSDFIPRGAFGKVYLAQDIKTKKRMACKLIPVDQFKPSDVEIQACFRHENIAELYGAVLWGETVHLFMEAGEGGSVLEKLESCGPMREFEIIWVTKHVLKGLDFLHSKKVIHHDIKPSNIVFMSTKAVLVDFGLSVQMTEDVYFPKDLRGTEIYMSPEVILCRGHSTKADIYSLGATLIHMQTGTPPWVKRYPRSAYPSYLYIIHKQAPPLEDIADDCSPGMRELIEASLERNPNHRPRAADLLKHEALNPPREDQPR

Compound	IC50 [nM]
CC(C)(C)CNc1c(C#N)cnc2c(C#N)cc(N[C@H](c3cn(C4(C(F)(F)F)CC4)nn3)c3csc4cnccc34)cc12 [Example 855, (S)-4-(neopentylamino)-6-((thieno[2,3-c]pyridin-3-yl(1-(1-(trifluoro-methyl)cyclopropyl)-1H-1,2,3-triazol-4-yl)methyl)-amino)quinoline-3,8-dicarbonitrile]	2
Cc1nc(F)ccc1[C@H](Nc1cc(Cl)c2ncc(C#N)c(NCC(C)(C)C)c2c1)c1nnn(C23CC(C2)C3)c1F [Example 951, (S)-6-(((1-(bicyclo[1.1.1]pentan-1-yl)-5-fluoro-1H-1,2,3-triazol-4-yl)(6-fluoro-2-methylpyridin-3-yl)methyl)amino)-8-chloro-4-(neopentylamino)quinoline-3-carbonitrile]	9
CC(C)(CNc1c(C#N)cnc2c(C#N)cc(N[C@H](c3cn(C4(C(F)F)CC4)nn3)c3ccc(F)c4ncccc34)cc12)C(F)(F)F [Example 815, (S)-6-(((1-{1-(difluoromethyl)-cyclopropyl)-1H-1,2,3-triazol-4-yl)(8-fluoroquinolin-5-yl)methyl)amino)-4-((3,3,3-trifluoro-2,2-dimethylpropyl)amino)quinoline-3,8-dicarbonitrile]	3
Cc1nc(F)ccc1[C@H](Nc1cc(Cl)c2ncc(C#N)c(NCC(C)(C)C(F)(F)F)c2c1)c1nnn(C2CC2)c1F [Example 958, (S)-8-chloro-6-(((1-cyclopropyl-5-fluoro-1H-1,2,3-triazol-4-yl)(6-fluoro-2-methylpyridin-3-yl)methyl)amino)-4-((3,3,3-trifluoro-2,2-dimethylpropyl)amino)quinoline-3-carbonitrile]	2

same assay, conditions: IC50 HTRF, Cot HTRF (TR-FRET) biochemical assay

IC50 [nM]	Compound
1	CC(C)(C)CNc1c(C#N)cnc2c(Cl)cc(N[C@H](c3cn(C4CC4)nn3)c3csc4c3CCN(C3COC3)C4)cc12 [Example 80, (S)-8-chloro-6-(((1-cyclopropyl-1H-1,2,3-triazol-4-yl)(6-(oxetan-3-yl)-4,5,6,7-tetrahydrothieno[2,3-c]pyridin-3-yl)methyl)amino)-4-(neopentylamino)-quinoline-3-carbonitrile]
5	Cn1c(=O)ccc2c([C@H](Nc3cc(Cl)c4ncc(C#N)c(NCC(C)(C)C)c4c3)c3cn(C45CC(C4)C5)nn3)cccc21 [Example 786, (S)-6-(((1-(bicyclo[1.1.1]pentan-1-yl)-1H-1,2,3-triazol-4-yl)(1-methyl-2-oxo-1,2-dihydroquinolin-5-yl)methyl)amino)-8-chloro-4-(neopentylamino)quinoline-3-carbonitrile]
153	CC(C)(C)OC(=O)N1CCC(n2cc([C@@H](Nc3cc(Cl)c4ncc(C#N)c(Nc5ccc(F)c(Cl)c5)c4c3)c3cncs3)nn2)CC1 [Example 384, tert-butyl (R)-4-(4-(((8-chloro-4-((3-chloro-4-fluorophenyl)amino)-3-cyanoquinolin-6-yl)amino)(thiazol-5-yl)methyl)-1H-1,2,3-triazol-1-yl)piperidine-1-carboxylate]
4	Cc1nc(F)ccc1[C@H](Nc1cc(Cl)c2ncc(C#N)c(NCC(C)(C)C)c2c1)c1nnn(C2CC2)c1C#N [Example 686, (S)-8-chloro-6-(((5-cyano-1-cyclopropyl-1H-1,2,3-triazol-4-yl)(6-fluoro-2-methylpyridin-3-yl)methyl)amino)-4-(neopentylamino)quinoline-3-carbonitrile]
4	Cc1nc(F)ccc1[C@H](Nc1cc(F)c2ncc(C#N)c(NCC(C)(C)C)c2c1)c1cn(C2(C(F)F)CC2)nn1 [Example 514, (S)-6-(((1-(1-(difluoromethyl)cyclopropyl)-1H-1,2,3-triazol-4-yl)(6-fluoro-2-methylpyridin-3-yl)methyl)amino)-8-fluoro-4-(neopentylamino)quinoline-3-carbonitrile]

The next lines start with the compound.

Compound	IC50 [nM]
N#Cc1cnc2c(Cl)cc(N[C@H](c3cn(C4COC4)nn3)c3cc(Br)cnc3Cl)cc2c1Nc1ccc(F)c(Cl)c1 [Example 320, (S)-6-(((5-bromo-2-chloropyridin-3-yl)(1-(oxetan-3-yl)-1H-1,2,3-triazol-4-yl)methyl)amino)-8-chloro-4-((3-chloro-4-fluorophenyl)amino)quinoline-3-carbonitrile]	60
COCCn1cc([C@@H](Nc2cc(Cl)c3ncc(C#N)c(Nc4ccc(F)c(Cl)c4)c3c2)c2cc(C#N)cs2)nn1 [Example 337, (R)-8-chloro-4-((3-chloro-4-fluorophenyl)amino)-6-(((4-cyanothiophen-2-yl)(1-(2-methoxy-ethyl)-1H-1,2,3-triazol-4-yl)methyl)amino)quinoline-3-carbonitrile]	16
Cn1cc(C(Nc2cc(Cl)c3ncc(C#N)c(Nc4ccc(F)c(Cl)c4)c3c2)c2cccnc2)nn1 (stereo not drawn) [Example 395, 8-chloro-4-((3-chloro-4-fluoro-phenyl)amino)-6-(((1-methyl-1H-1,2,3-triazol-4-yl)(pyridin-3-yl)methyl)amino)quinoline-3-carbonitrile]	4
CCN1CC[C@@H](n2cc(C(Nc3cc(Cl)c4ncc(C#N)c(Nc5ccc(F)c(Cl)c5)c4c3)c3cccnc3)nn2)C1 (stereo partly drawn) [Example 402, 8-chloro-4-((3-chloro-4-fluoro-phenyl)amino)-6-(((1-((R)-1-ethylpyrrolidin-3-yl)-1H-1,2,3-triazol-4-yl)(pyridin-3-yl)methyl)-amino)quinoline-3-carbonitrile]	19
Cn1cc(C(Nc2cc(Cl)c3ncc(C#N)c(Nc4ccc(F)c(Cl)c4)c3c2)c2cn(C3CCNCC3)nn2)nn1 (stereo not drawn) [Example 397, 8-chloro-4-((3-chloro-4-fluoro-phenyl)amino)-6-(((1-methyl-1H-1,2,3-triazol-4-yl)(1-(piperidin-4-yl)-1H-1,2,3-triazol-4-yl)methyl)amino)-quinoline-3-carbonitrile]	46
N#Cc1cnc2c(Cl)cc(NC(c3cccnc3)c3cn([C@@H]4CCN(C(=O)OCc5ccccc5)C4)nn3)cc2c1Nc1ccc(F)c(Cl)c1 (stereo partly drawn) [Example 400, benzyl (3R)-3-(4-(((8-chloro-4-((3-chloro-4-fluorophenyl)amino)-3-cyanoquinolin-6-yl)amino)(pyridin-3-yl)methyl)-1H-1,2,3-triazol-1-yl)pyrrolidine-1-carboxylate]	119
N#Cc1cnc2c(Cl)cc(N[C@@H](c3cscn3)c3cn(CCO)nn3)cc2c1Nc1ccc(F)c(Cl)c1 [Example 356, (S)-8-chloro-4-((3-chloro-4-fluorophenyl)amino)-6-(((1-(2-hydroxyethyl)-1H-1,2,3-triazol-4-yl)(thiazol-4-yl)methyl)amino)-quinoline-3-carbonitrile]	2
N#Cc1csc([C@H](Nc2cc(Cl)c3ncc(C#N)c(Nc4ccc(F)c(Cl)c4)c3c2)c2cn(CCO)nn2)c1 [Example 333, (R)-8-chloro-4-((3-chloro-4-fluorophenyl)amino)-6-(((4-cyanothiophen-2-yl)(1-(2-hydroxyethyl)-1H-1,2,3-triazol-4-yl)methyl)amino)quinoline-3-carbonitrile]	3

same assay, conditions: read-out: IC50 HTRF; Cot HTRF (TR-FRET) biochemical assay

Compound	IC50 [nM]
CC(C)n1cc([C@@H](Nc2cc(Cl)c3ncc(C#N)c(Nc4ccc(F)c(Cl)c4)c3c2)c2cc(Br)cnc2Cl)nn1 [Example 293, (S)-6-(((5-brorno-2-chloropyridin-3-yl)(1-isopropyl-1H-1,2,3-triazol-4-yl)methyl)amino)-8-chloro-4-((3-chloro-4-fluorophenyl)-amino)quinoline-3-carbonitrile]	32
